The structures appear in SMILES notation. pIC50: −log10 of the molar value. Where only a bound is given, the exact number is not on record here.

The subject of one assay is IL-1β production in PMA-differentiated THP-1 cells. As to the kind of experiment: IL-1β production in PMA-differentiated THP-1 cells stimulated with gramicidin (hTHP-1 assay, 2% fetal bovine serum; Procedures 1-3). Type of assay: cell-based, human. To be noted: Homo sapiens, THP-1, hTHP-1 assay containing 2% fetal bovine serum; class symbols; read-out: hTHP-1 IC50 (Average IC50 of compounds in hTHP-1 assay). In short, it runs like this: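 PMA-differentiated (20 ng/ml, 16-18 h) THP-1 cells in RPMI with 2% FBS, 50,000 cells/well, preincubated 1 h with compound (final 100–0.0017 μM, 0.37% DMSO), then stimulated with 5 μM gramicidin for 2 h. Supernatant IL-1β measured by HTRF.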
On to `CN(C)Cc1ccc(S(N)(=O)=NC(=O)Nc2c3c(cc4c2CCC4)CCC3)cc1` (stereo not shown) [Example 28, 4-((dimethylamino)methyl)-N′-(1,2,3,5,6,7-hexahydro-s-indacen-4-ylcarbamoyl)benzenesulfonimidamide], for which the negative-log IC50 (pIC50) was 6.70 to 7.40.

On to `CC(C)(O)c1cc(F)c(S(N)(=O)=NC(=O)Nc2c3c(c(F)c4c2CCC4)CCC3)s1` (stereo not shown) [Example 30, 3-fluoro-N′-(8-fluoro-1,2,3,5,6,7-hexahydro-s-indacen-4-ylcarbamoyl)-5-(2-hydroxypropan-2-yl)thiophene-2-sulfonimidamide], for which the pIC50 is 7.40 to 8.10.

With `CC(C)c1cc(OC(F)F)cc(C(C)C)c1NC(=O)N=S(N)(=O)c1ncc(C(C)(C)O)s1` (stereo not shown) [Example 38, N′-(4-(difluoromethoxy)-2,6-diisopropylphenylcarbamoyl)-5-(2-hydroxypropan-2-yl)thiazole-2-sulfonimidamide], the pIC50 is 6.70 to 7.40.

`CC(C)(O)c1ccc(S(N)(=O)=NC(=O)Nc2c3c(c(Cl)c4c2CCC4)CCC3)c(F)c1` (stereo not shown) [Example 41]: the pIC50 was 6.70 to 7.40.

Turning to `Cc1oc(S(N)(=O)=NC(=O)Nc2c3c(c(F)c4c2CCC4)CCC3)cc1C(C)(C)O` (stereo not shown) [Example 45, N′-(8-fluoro-1,2,3,5,6,7-hexahydro-s-indacen-4-ylcarbamoyl)-4-(2-hydroxypropan-2-yl)-5-methylfuran-2-sulfonimidamide], the pIC50 is above 8.10.

On to `CN(C)Cc1ccc(S(N)(=O)=NC(=O)Nc2c3c(cc4c2CCC4)CCC3)c(F)c1` (stereo not shown) [Example 48, 4-((dimethylamino)methyl)-2-fluoro-N′-(1,2,3,5,6,7-hexahydro-s-indacen-4-ylcarbamoyl)benzene-sulfonimidamide], for which the pIC50 is 6.70 to 7.40.

For the compound `CC(C)c1cc(F)cc(C(C)C)c1NC(=O)N=S(N)(=O)c1ccc(C(C)(C)O)s1` (stereo not shown) [Example 49, N′-(4-fluoro-2,6-diisopropylphenylcarbamoyl)-5-(2-hydroxypropan-2-yl)thiophene-2-sulfonimidamide], the pIC50 was 6.00 to 6.70.

On to `CC(C)(O)c1ccc(S(N)(=O)=NC(=O)Nc2c3c(c(F)c4c2CCC4)CCC3)c(Cl)c1` (stereo not shown) [Example 50, 2-chloro-N′-(8-fluoro-1,2,3,5,6,7-hexahydro-s-indacen-4-ylcarbamoyl)-4-(2-hydroxypropan-2-yl)benzenesulfonimidamide], for which the pIC50 was 5.30 to 6.00.

Take `Cc1cc(S(N)(=O)=NC(=O)Nc2c3c(cc4c2CCC4)CCC3)ccc1C(C)(C)O` (stereo not shown) [Example 52, N′-((1,2,3,5,6,7-hexahydro-s-indacen-4-yl)carbamoyl)-4-(2-hydroxypropan-2-yl)-3-methylbenzenesulfonimidamide]: the pIC50 was 6.00 to 6.70.

Turning to `Cc1nc(C(C)(C)O)sc1S(N)(=O)=NC(=O)Nc1c2c(cc3c1CCC3)CCC2` (stereo not shown) [Example 53, N′-((1,2,3,5,6,7-hexahydro-s-indacen-4-yl)carbamoyl)-2-(2-hydroxypropan-2-yl)-4-methylthiazole-5-sulfonimidamide], the pIC50 was 7.40 to 8.10.

With `CC(C)(O)c1cc(F)cc(S(N)(=O)=NC(=O)Nc2c3c(c(F)c4c2CCC4)CCC3)c1` (stereo not shown) [Example 56, 3-fluoro-N′-((8-fluoro-1,2,3,5,6,7-hexahydro-s-indacen-4-yl)carbamoyl)-5-(2-hydroxypropan-2-yl)benzenesulfonimidamide], the pIC50 is 6.00 to 6.70.

Consider `Cc1cc(S(N)(=O)=NC(=O)Nc2c(C(C)C)cc(OC(F)F)cc2C(C)C)sc1C(C)(C)O` (stereo not shown) [Example 57, N′-((4-(difluoromethoxy)-2,6-diisopropylphenyl)carbamoyl)-5-(2-hydroxypropan-2-yl)-4-methylthiophene-2-sulfonimidamide], for which the pIC50 was 6.00 to 6.70.

`CC(C)(O)c1cc(S(N)(=O)=NC(=O)Nc2c3c(c(F)c4c2CCC4)CCC3)ccc1F` (stereo not shown) [Example 58, 4-fluoro-N′-((8-fluoro-1,2,3,5,6,7-hexahydro-s-indacen-4-yl)carbamoyl)-3-(2-hydroxypropan-2-yl)benzenesulfonimidamide]: the pIC50 is 5.30 to 6.00.

As for `Cc1nc(C(C)(C)O)sc1S(N)(=O)=NC(=O)Nc1c2c(c(F)c3c1CCC3)CCC2` (stereo not shown) [Example 59, N′-((8-fluoro-1,2,3,5,6,7-hexahydro-s-indacen-4-yl)carbamoyl)-2-(2-hydroxypropan-2-yl)-4-methylthiazole-5-sulfonimidamide], the pIC50 is 7.40 to 8.10.

Regarding `CC(C)(O)c1ccc(S(N)(=O)=NC(=O)Nc2c3c(cc4c2CCC4)CCC3)cc1F` (stereo not shown) [Example 60, 3-fluoro-N′-((1,2,3,5,6,7-hexahydro-s-indacen-4-yl)carbamoyl)-4-(2-hydroxypropan-2-yl)benzenesulfonimidamide], the pIC50 is 5.30 to 6.00.

On to `CC(C)(O)c1csc(S(N)(=O)=NC(=O)Nc2c3c(c(F)c4c2CCC4)CCC3)n1` (stereo not shown) [Example 61, N′-((8-fluoro-1,2,3,5,6,7-hexahydro-s-indacen-4-yl)carbamoyl)-4-(2-hydroxypropan-2-yl)thiazole-2-sulfonimidamide], for which the pIC50 was 7.40 to 8.10.

`CC(C)c1ccc(F)c(C(C)C)c1NC(=O)N=S(N)(=O)c1cnc(C(C)(C)O)s1` (stereo not shown) [Example 62, N′-((3-fluoro-2,6-diisopropylphenyl)carbamoyl)-2-(2-hydroxypropan-2-yl)thiazole-5-sulfonimidamide]: the pIC50 was 6.70 to 7.40.

As for `CC(C)c1cc(C#N)cc(C(C)C)c1NC(=O)N=S(N)(=O)c1cc(C#N)cc(C(C)(C)O)c1` (stereo not shown) [Example 67, 3-cyano-N′-((4-cyano-2,6-diisopropylphenyl)carbamoyl)-5-(2-hydroxypropan-2-yl)benzenesulfonimidamide], the pIC50 is 6.00 to 6.70.

Regarding `CC(C)c1cc(C#N)c(F)c(C(C)C)c1NC(=O)NS(=N)(=O)c1sc(C(C)(C)O)nc1CO` (stereo not shown) [Example 71, N-((4-cyano-3-fluoro-2,6-diisopropylphenyl)carbamoyl)-4-(hydroxymethyl)-2-(2-hydroxypropan-2-yl)thiazole-5-sulfonimidamide], the pIC50 is 5.30 to 6.00.

With `CC(C)(O)c1ncc(S(N)(=O)=NC(=O)Nc2c3c(cc4c2CC4)CCC3)s1` (stereo not shown) [Example 223, 2-(2-Hydroxypropan-2-yl)-N′-((2,4,5,6-tetrahydro-1H-cyclobuta[f]inden-3-yl)carbamoyl)thiazole-5-sulfonimidamide], the pIC50 is 7.40 to 8.10.

For `CNS(=O)(=NC(=O)Nc1c2c(cc3c1CCC3)CCC2)c1cnc(C(C)(C)O)s1` (stereo not shown) [Example 247, N′-((1,2,3,5,6,7-hexahydro-s-indacen-4-yl)carbamoyl)-2-(2-hydroxypropan-2-yl)-N-methylthiazole-5-sulfonimidamide], the negative logarithm of the IC50 (pIC50) was 4.52 to 5.30.

On to `CN(C(=O)N=S(N)(=O)c1cnc(C(C)(C)O)s1)c1c2c(cc3c1CCC3)CCC2` (stereo not shown) [Example 248, N′-((1,2,3,5,6,7-hexahydro-s-indacen-4-yl)(methyl)carbamoyl)-2-(2-hydroxypropan-2-yl)thiazole-5-sulfonimidamide], for which the pIC50 is 4.52 to 5.30.

On to `CC(C)(O)c1cnc(S(N)(=O)=NC(=O)Nc2c3c(cc4c2OCC4)CCC3)s1` (stereo not shown) [Example 258, 5-(2-Hydroxypropan-2-yl)-N′-((3,5,6,7-tetrahydro-2H-indeno[5,6-b]furan-8-yl)carbamoyl)thiazole-2-sulfonimidamide], for which the pIC50 is 6.70 to 7.40.

As to `CC(C)(O)c1csc(S(N)(=O)=NC(=O)Nc2c3c(cc4c2OCC4)CCC3)n1` (stereo not shown) [Example 263, 4-(2-Hydroxypropan-2-yl)-N′-((3,5,6,7-tetrahydro-2H-indeno[5,6-b]furan-8-yl)carbamoyl)thiazole-2-sulfonimidamide], the pIC50 is 7.40 to 8.10.

Take `CN(C)C(C)(C)c1ccc(S(N)(=O)=NC(=O)Nc2c3c(cc4c2CCC4)CCC3)cc1` (stereo not shown) [Example 267, 4-(2-(Dimethylamino)propan-2-yl)-N′-(1,2,3,5,6,7-hexahydro-s-indacen-4-ylcarbamoyl)benzenesulfonimidamide]: the pIC50 is 6.70 to 7.40.

On to `CC(C)(O)c1cc(F)c(S(N)(=O)=NC(=O)Nc2c3c(cc4c2CCC4)CCC3)s1` (stereo not shown) [Example 269, 3-Fluoro-N′-(1,2,3,5,6,7-hexahydro-s-indacen-4-ylcarbamoyl)-5-(2-hydroxypropan-2-yl)thiophene-2-sulfonimidamide], for which the pIC50 was 7.40 to 8.10.

The same assay, now with this note: hTHP-1 assay containing 2% fetal bovine serum; class symbols; read-out: hTHP-1 IC50 (Average IC50 of compounds in hTHP-1 assay).
For `CC(C)c1cc(C#N)c(F)c(C(C)C)c1NC(=O)N=S(N)(=O)c1cnc(C(C)(O)CO)s1` (stereo not shown) [Example 72, N′-((4-cyano-3-fluoro-2,6-diisopropylphenyl)carbamoyl)-2-(1,2-dihydroxypropan-2-yl)thiazole-5-sulfonimidamide], the pIC50 is 6.00 to 6.70.

For the compound `Cc1oc(S(N)(=O)=NC(=O)Nc2c3c(cc4c2C(C)CC4)CCC3)cc1C(C)(C)O` [Example 127, Two isomers of (R,S)-and (R,R)-or (S,S)-and (S,R) 4-(2-hydroxypropan-2-yl)-5-methyl-N′-((3-methyl-1,2,3,5,6,7-hexahydro-s-indacen-4-yl)carbamoyl)furan-2-sulfonimidamide], the pIC50 was 6.70 to 7.40.

On to `[2H]C1([2H])CCc2cc3c(c(NC(=O)N=S(N)(=O)c4cnc(C(C)(C)O)s4)c21)C([2H])([2H])CC3` (stereo not shown) [Example 227, N′-((1,2,3,5,6,7-hexahydro-s-indacen-4-yl-3,3,5,5-d4)carbamoyl)-2-(2-hydroxypropan-2-yl)thiazole-5-sulfonimidamide], for which the pIC50 was […].

Regarding `[2H]C1([2H])CCc2c1cc1c(c2NC(=O)N=S(N)(=O)c2cnc(C(C)(C)O)s2)CCC1([2H])[2H]` (stereo not shown) [Example 228, N′-((1,2,3,5,6,7-hexahydro-s-indacen-4-yl-1,1,7,7-d4)carbamoyl)-2-(2-hydroxypropan-2-yl)thiazole-5-sulfonimidamide], the pIC50 was […].

As to `CC(c1ccc(S(N)(=O)=NC(=O)Nc2c3c(cc4c2CCC4)CCC3)cc1)N(C)C` (stereo not shown) [Example 266, 4-(1-(Dimethylamino)ethyl)-N′-(1,2,3,5,6,7-hexahydro-s-indacen-4-ylcarbamoyl)benzenesulfonimidamide], the pIC50 is 6.70 to 7.40.

Source of the values: US11724992B2 (Novartis AG, priority 2017, dated 2023).
